Data set [1] concerns human primary hepatocytes. Briefly: TNF-α/ActD-induced cell death in human hepatocytes. It counts as cell-based. The note with it: exposure to CO. The protocol:
(§1) Cells were treated with TNF-α (10 ng/ml) and actinomycin-D (Act-D; 200 ng/ml, Sigma Chemical Co. St. Louis, Mo.) to induce cell death.
To generate the data presented in FIG. 3, human primary hepatocytes obtained from a donor liver resection were treated with CO and TNF-α/ActD as described above.

In a further data set the test system is HO-1. As to the kind of experiment: Liver HO-1 expression (immunoblot). It counts as in vivo, mice. As for the experimental part: (§2) Western blot analysis was performed on primary hepatocytes in culture or from liver homogenates with antibodies to iNOS (Transduction Laboratories, Lexington, Ky.; 1:1000), HO-1 (Calbiochem; 1:2000), or β-actin (Sigma Chemical; 1:5000). Thirty μg protein in cell culture experiments or 100 μg protein from liver homogenates was loaded per well for SDS-PAGE.
To assess the role of iNOS on TNF-α/D-gal-induced HO-1 expression in the liver (data presented in FIG. 16), mice were administered L-NIL (5 mg/kg, i.p.) 2 hr prior to pre-treatment with CO (250 ppm) and every 2 hr thereafter. Control mice received L-NIL and remained in room air.

Another data set has as its system primary rat hepatocytes. As to the kind of experiment: TNF-α induced apoptosis in rat hepatocytes. The conditions noted are these: exposure to CO. The format is cell-based. The protocol:
as §1
Thus, the effects of CO were independent of the cGMP/p38 MAPK pathway. In these experiments, hepatocytes were pre-treated with CO for one hour prior to addition of TNF-α/ActD to the medium.

For data set [2], the system named is iNOS. Briefly: Liver iNOS expression (immunoblot, immunostaining). It counts as in vivo, mice. The protocol: as §2
For histology and immunohistochemistry, livers were fixed in 2% paraformaldehyde and then snap frozen in liquid nitrogen. Livers were then sectioned (7 microns thick) and stained with hematoxylin and eosin (H&E). Liver sections were also stained for TUNEL and activated caspase-3 using kits according to the manufacturer's instructions (Promega). Sections for iNOS immunocytochemistry were blocked with 5% goat serum containing 0.2% bovine serum albumin. Thereafter, sections were incubated for 1 hour at room temperature with anti-iNOS antibody (Transduction Laboratories; 1:300), then washed and probed with a secondary antibody conjugated to Alexa-488 (Molecular Probes, Eugene, Oreg.). Nuclei were stained with Hoechst dye. Images were acquired using an Olympus Provus microscope. Hepatocytes in culture were plated on gelatinized coverslips, stimulated as indicated, and then fixed in 2% paraformaldehyde containing 0.1% Triton X-100. […]

Data set [3] deals with mouse primary hepatocytes. As to the kind of experiment: TNF-α/ActD-induced cell death, crystal violet viability. The format is cell-based. The protocol: Mouse primary hepatocytes were harvested from C57BL/6J, mkk3^−/−, inos^−/− (in-house breeding colony), or hmox-1^−/− mice as described in Kim et al. (J. Biol. Chem. 272: 1402-1411 (1997)). Hepatocytes were used on days 1-3 following harvest.
as §1
Whether exogenous CO is protective against hepatocyte cell death in vitro was investigated. To generate the data presented in FIG. 2, mouse hepatocytes were pre-incubated with CO (250 ppm) for 1 hr (standard pre-treatment time for all experiments) prior to addition of TNF-α/Act-D (10 ng/200 ng/ml respectively). Cells were maintained in CO for the duration of the experiment. Twelve hours afterward, cell viability was measured as described in Kim et al. (J. Biol. Chem. 272: 1402-1411 (1997)). Adenoviral experiments involved incubating hepatocytes overnight with 10 pfu/cell of the adenovirus prior to addition of TNF-α/ActD, and then assaying for viability using crystal violet. The roles of signaling molecules guanylyl cyclase and p38 MAPK were also investigated in this model. To evaluate the role of cGMP and confirm the role of NF-κB, hepatocytes were treated separately with the soluble guanylate cyclase (sGC) inhibitor 1H-[1,2,4]Oxadiazolo[4,3-a]quinoxalin-1-one (ODQ; Calbiochem; 2-10 μM) or the NF-κB inhibitor BAY 11-7082, (10 μM). Cells were treated with the inhibitors for 1 hour prior to the 1 hour pretreatment with CO. TNF-α/ActD was then added and the cells tested for viability 12 hours later. NF-κB activation was critical to the protection elicited by CO while cGMP was not involved.
To generate the data presented in FIG. 9, mouse hepatocytes were isolated from inos^−/− or from wild type C57BL/6J mice, which were then pre-treated for 1 hr with L-NIO (1 mM) to inhibit iNOS prior to CO administration. Those groups exposed to CO received a one-hour pretreatment prior to addition of TNF-α/ActD and were then returned to CO exposure.
To generate the data presented in FIG. 19, mouse hepatocytes were isolated from HO-1 null mice (hmox-1^−/−) and wild type (C57BL/6J) littermates, pretreated for 1 hour with CO (250 ppm), and treated with TNF-α/ActD. Viability was assayed as described above.
To generate the data presented in FIG. 20, mouse hepatocytes were isolated from HO-1 null mice (hmox-1^−/−) and wild type (C57BL/6J) littermates, pretreated with the NO donor SNAP (500 μM), and then treated with TNF-α/ActD 1 hour later.

The test system of data set [4] is iNOS. Briefly: iNOS protein immunoblot in hepatocytes. It counts as cell-based. The conditions noted are these: TNF-α/ActD 6-8 hr in presence of CO 250 ppm vs TNF-α alone. As for the experimental part:
as §2
To generate the data in FIG. 8, expression of iNOS protein was evaluated using immunoblotting techniques. Briefly, cell extracts from hepatocytes were treated with TNF-α/ActD for 6-8 hr in the presence and absence of CO (250 ppm). Control cells received air or CO alone.

Data set [5] deals with acetaminophen-induced liver injury. Briefly: Acetaminophen (APAP)-induced hepatitis model. It counts as in vivo, mice. The protocol:
The animals were exposed to CO at a concentration of 250 ppm. […] Mice were placed in the exposure chamber as required.
To generate the data in FIG. 21, Male C57BL/6J mice were exposed to CO (250 ppm) either 1 hr prior or 4 hr post administration of APAP (500 mg/kg, i.p.). The mice were then maintained in CO for the duration of the experiment. Serum ALT levels were determined 20 hr after APAP administration. Control mice received APAP and were maintained in air. This protocol was designed to allow hepatitis to develop for four hours before administering CO.

Entries after “also recorded” stand apart in the source; their conditions may differ.

Consider `[C-]#[O+]` [CO, carbon monoxide], for which the TNF-α induced apoptosis entry in data set [1] is “inhibited TNF-α induced apoptosis”. Further, the “Liver HO-1 expression when iNOS was inhibited” value in the data set on HO-1 (CO 250 ppm with L-NIL 5 mg/kg i.p. every 2 hr) was “unable to induce expression”. Moreover, in the data set with HO-1 (CO 250 ppm, presence and absence of TNF-α/D-gal), the “Liver HO-1 expression” value is listed as “significant increase”. In addition, the TNF-α induced apoptosis entry in the data set with primary rat hepatocytes was “inhibited TNF-α induced apoptosis”. Besides, in the data set with iNOS [2] (CO 250 ppm 1 hr prior to TNF-α/D-gal, livers six hours later), the “Liver iNOS expression” value is recorded as “markedly increased”. For the same compound, in the data set with iNOS [2] (immunostaining), the “Liver iNOS expression, CO without TNF-α/D-gal” value is listed as “modest increase”. Further, the “TNF-α/ActD-induced cell death, hmox-1−/− hepatocytes” value in data set [3] (CO 250 ppm, 1 hour pretreatment) is reported as “unable to protect”. Further, in data set [3] (CO 250 ppm, 1 hr pre-incubation and maintained, viability 12 hours), the “TNF-α/ActD-induced cell death, wild type hepatocytes” value was “significantly less cell death; also recorded: significantly protected”. Further, the “Cell death in the presence of SB203580” value in data set [3] (SB203580 3-30 μM, data not shown) is reported as “inhibited cell death”. In data set [3] (data not shown), the “Cell death in hepatocytes from mkk3−/− mice” value is reported as “inhibited cell death” and the “Protection when CO treatment initiated after addition of TNF-α” value is given as “less protection was observed”. Also, the “Protection against cell death where iNOS expression was absent or inhibited” value in data set [3] (inos−/− hepatocytes or wild type with L-NIO 1 mM, 12 hr) is reported as “did not provide protection”. Further, the iNOS protein entry with iNOS [4] is given as “markedly increased”. Also, the “Protection with CO pre-treatment prior to APAP compared with post-treatment” value in data set [5] (CO 250 ppm 1 hr prior to APAP) is “protection was similar”. In addition, the “Serum ALT” value in data set [5] (CO 250 ppm from 4 hr post APAP 500 mg/kg i.p., 20 hr after APAP, controls 622±44) was determined as 175±137. Further, in data set [5] (CO 4 hours after APAP 500 mg/kg i.p.), the “Reduction in liver injury” value amounted to 62%.
